Measured values published in article PMC11682962, “The histamine analogue clobenpropit modulates IRF7 phosphorylation and interferon production by targeting CXCR4 in systemic lupus erythematosus models” (Frontiers in Immunology, 2024).

Molecular target: T1, CXCR4 (Homo sapiens, UniProt P61073)
T1 construct: Nanoluc-CXCR4
Assay: NanoBRET competition binding against CXCL12-AF647 in transfected HEK293T cells; anti-IFN effect lost with CXCR4 siRNA
Assay type: cell-based

T1 sequence (P61073 whole entry): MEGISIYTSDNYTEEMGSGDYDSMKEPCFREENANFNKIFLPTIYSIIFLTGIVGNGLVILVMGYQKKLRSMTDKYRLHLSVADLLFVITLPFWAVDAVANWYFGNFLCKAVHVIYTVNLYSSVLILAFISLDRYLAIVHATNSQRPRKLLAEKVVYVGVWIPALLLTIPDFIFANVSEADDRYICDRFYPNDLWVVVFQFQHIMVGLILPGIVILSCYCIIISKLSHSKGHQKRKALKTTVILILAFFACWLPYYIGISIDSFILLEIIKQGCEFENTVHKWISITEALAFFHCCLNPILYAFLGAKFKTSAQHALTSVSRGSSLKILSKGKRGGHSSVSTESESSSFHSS

NC(=NCc1ccc(Cl)cc1)SCCCc1cnc[nH]1 [CB, clobenpropit]
Ki: 18.6 µM
